Reference: paper PMC11876601 (Molecular Systems Biology, 2025)
Values joined by “and” are separate entries in the source; they are usually repeats but may differ in a detail not shown here. Equal values may be shown once. Read-outs that look alike come from different tables or passages of the source.

System: AsPC-1 cells
Assay: Cell proliferation assay, chemodrug + ATR inhibitor (Incucyte confluence, 72 h);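 note: underlying read-out for every value is AsPC-1 confluence after 72 h incubation at 37 °C and 5% CO2, divided by that well's starting confluence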
Conditions: for Curve slope / Curve bottom / Curve top: fitted dose-response curve; for Curve bottom / Curve top: relative response; for AsPC-1 viability (ratio) / AsPC-1 viability mean (ratio) / Raw data (confluence at 72 h/confluence at 0 h): Gartisertib experiment; for EC50: Homo sapiens; for Ratio: Response / Response vehicle (mean)
[1] = AsPC1, Experiment ATRi (ATR inhibitor alone)
[2] = AsPC1, Experiment GEM+ATRi_dose1
[3] = AsPC1, Experiment GEM+ATRi_dose2
[4] = AsPC1, Experiment GEM+ATRi_dose3
[5] = replicate R1, titrated drug dose 3 nM
[6] = replicate R1, titrated drug dose 10 nM
[7] = replicate R1, titrated drug dose 30 nM
[8] = replicate R1, titrated drug dose 100 nM
[9] = replicate R1, titrated drug dose 300 nM
[10] = replicate R1, titrated drug dose 1000 nM
[11] = replicate R1, titrated drug dose 3000 nM
[12] = replicate R1, titrated drug dose 10000 nM
[13] = replicate R2, titrated drug dose 3 nM
[14] = replicate R2, titrated drug dose 10 nM
[15] = replicate R2, titrated drug dose 30 nM
[16] = replicate R2, titrated drug dose 100 nM
[17] = replicate R2, titrated drug dose 300 nM
[18] = replicate R2, titrated drug dose 1000 nM
[19] = replicate R2, titrated drug dose 3000 nM
[20] = replicate R2, titrated drug dose 10000 nM
[21] = replicate R3, titrated drug dose 3 nM
[22] = replicate R3, titrated drug dose 10 nM
[23] = replicate R3, titrated drug dose 30 nM
[24] = replicate R3, titrated drug dose 100 nM
[25] = replicate R3, titrated drug dose 300 nM
[26] = replicate R3, titrated drug dose 1000 nM
[27] = replicate R3, titrated drug dose 3000 nM
[28] = replicate R3, titrated drug dose 10000 nM

Experimental: Cells were seeded at 5000 cells/well into 96-well flat bottom plates (Eppendorf) and allowed to attach overnight. […] Cells were incubated for 72 h at 37 °C and 5% CO2. Cell confluence readouts at 72 h were either normalized to their initial confluence using the Incucyte software (AsPC-1) or used without prior normalization (all others). […] Each experiment was performed in triplicates, the data was plotted as mean ± standard deviation (s.d.).

EC50 (ASPC1, 72 h, AsPC1, Experiment ATRi (ATR inhibitor alone), single replicates R1-R3): 107 nM | EC50 (ASPC1, 72 h, read-out: EC50 (cell growth), ATR inhibitor as single agent): 128 nM | EC50 (ASPC1, 72 h, read-out: EC50 mean [nM], AsPC1, Experiment ATRi (ATR inhibitor alone), mean of replicates): 128 nM | EC50 (ASPC1, 72 h, read-out: pEC50, AsPC1 (converted), Experiment ATRi (ATR inhibitor alone), single replicates R1-R3): 107 nM | EC50 (ASPC1, read-out: EC50 mean [nM], AsPC1, Experiment ATRi (ATR inhibitor alone), mean of replicates): 128 nM
Compound: Nc1nn2cc(F)cnc2c1C(=O)Nc1cncc(F)c1N1CCC(C(=O)N2CCN(C3COC3)CC2)CC1 [Gartisertib]
Curve slope [1]: 1.84 and 2.11 and 1.85 | Curve bottom [1]: 0.97 and 0.99 and 1.02 | Curve top [1]: 0.32 and 0.29 and 0.28 | Curve slope [2]: 1.70 and 3.25 and 2.63 | Curve bottom [2]: 0.97 and 0.89 and 0.93 | Curve top [2]: 0.47 and 0.39 | Curve slope [3]: 1.86 and 2.66 and 1.99 | Curve bottom [3]: 1.01 and 0.93 and 0.97 | Curve top [3]: 0.45 and 0.36 | Curve bottom [4]: 0.93 and 0.90 and 0.88 | Curve top [4]: 0.47 and 0.36 | Response (GEM 0 nM, ATRi 3 nM): 2.96 and 3.43 and 3.57 | Response (GEM 0 nM, ATRi 10 nM): 3.28 and 3.77 and 3.92 | Response (GEM 0 nM, ATRi 30 nM): 3.05 and 3.68 | Response (GEM 1 nM + ATRi 3 nM): 3.14 and 3.82 and 3.86 | Response (GEM 1 nM + ATRi 10 nM): 3.23 and 3.93 and 3.90 | Response (GEM 1 nM + ATRi 30 nM): 2.84 and 3.74 | Response (GEM 3 nM + ATRi 3 nM): 3.14 and 3.83 and 3.74 | Response (GEM 3 nM + ATRi 10 nM): 3.01 and 3.70 and 3.66 | Response (GEM 3 nM + ATRi 30 nM): 3.03 and 3.39 | Response (GEM 10 nM + ATRi 3 nM): 2.77 and 3.58 and 3.45 | Response (GEM 10 nM + ATRi 10 nM): 2.54 and 2.78 and 2.71 | Response (GEM 10 nM + ATRi 30 nM): 1.88 and 1.90 and 1.98 | Response (GEM 30 nM + ATRi 3 nM): 2.10 and 2.28 and 2.14 | Response (GEM 30 nM + ATRi 10 nM): 1.63 and 1.61 and 1.64 | Response (GEM 30 nM + ATRi 30 nM): 1.75 and 1.65 and 1.57 | Response (GEM 100 nM + ATRi 3 nM): 1.68 and 1.66 and 1.64 | Response (GEM 100 nM + ATRi 10 nM): 1.57 and 1.53 and 1.56 | Response (GEM 100 nM + ATRi 30 nM): 1.53 and 1.59 and 1.47 | Response (GEM 300 nM + ATRi 3 nM): 1.57 and 1.60 and 1.54 | Response (GEM 300 nM + ATRi 10 nM): 1.52 and 1.50 | Response (GEM 300 nM + ATRi 30 nM): 1.48 and 1.44 and 1.43 | Response (GEM 1000 nM + ATRi 3 nM): 1.57 and 1.62 | Response (GEM 1000 nM + ATRi 10 nM): 1.40 and 1.55 and 1.43 | Response (GEM 1000 nM + ATRi 30 nM): 1.36 and 1.45 and 1.40 | Response (GEM 3000 nM + ATRi 3 nM): 1.36 and 1.58 and 1.49 | Response (GEM 3000 nM + ATRi 10 nM): 1.38 and 1.44 and 1.37 | Response (GEM 3000 nM + ATRi 30 nM): 1.32 and 1.42 and 1.36 | AsPC-1 viability (ratio) [5]: 0.9 ratio | AsPC-1 viability mean (ratio) [5]: 0.59 ratio | Raw data (confluence at 72 h/confluence at 0 h) [5]: 2.89 | AsPC-1 viability (ratio) [6]: 1.01 ratio | AsPC-1 viability mean (ratio) [6]: 0.99 ratio | Raw data (confluence at 72 h/confluence at 0 h) [6]: 3.24 | AsPC-1 viability (ratio) [7]: 0.95 ratio | AsPC-1 viability mean (ratio) [7]: 0.48 ratio | Raw data (confluence at 72 h/confluence at 0 h) [7]: 3.04 | AsPC-1 viability (ratio) [8]: 0.63 ratio | AsPC-1 viability mean (ratio) [8]: 0.45 ratio | Raw data (confluence at 72 h/confluence at 0 h) [8]: 2.03 | AsPC-1 viability (ratio) [9]: 0.44 ratio | AsPC-1 viability mean (ratio) [9]: 0.4 ratio | Raw data (confluence at 72 h/confluence at 0 h) [9]: 1.4 | AsPC-1 viability (ratio) [10]: 0.37 ratio | AsPC-1 viability mean (ratio) [10]: 0.54 ratio | Raw data (confluence at 72 h/confluence at 0 h) [10]: 1.19 | AsPC-1 viability (ratio) [11]: 0.33 ratio | AsPC-1 viability mean (ratio) [11]: 0.49 ratio | Raw data (confluence at 72 h/confluence at 0 h) [11]: 1.04 | AsPC-1 viability (ratio) [12]: 0.27 ratio | AsPC-1 viability mean (ratio) [12]: 0.45 ratio | Raw data (confluence at 72 h/confluence at 0 h) [12]: 0.87 | AsPC-1 viability (ratio) [13]: 1.01 ratio | AsPC-1 viability mean (ratio) [13]: 0.6 ratio | Raw data (confluence at 72 h/confluence at 0 h) [13]: 4.15 | AsPC-1 viability (ratio) [14]: 1 ratio | AsPC-1 viability mean (ratio) [14]: 1.08 ratio | Raw data (confluence at 72 h/confluence at 0 h) [14]: 4.13 | AsPC-1 viability (ratio) [15]: 0.94 ratio | AsPC-1 viability mean (ratio) [15]: 0.49 ratio | Raw data (confluence at 72 h/confluence at 0 h) [15]: 3.88 | AsPC-1 viability (ratio) [16]: 0.73 ratio | AsPC-1 viability mean (ratio) [16]: 0.44 ratio | Raw data (confluence at 72 h/confluence at 0 h) [16]: 3.03 | AsPC-1 viability (ratio) [17]: 0.38 ratio | AsPC-1 viability mean (ratio) [17]: 0.4 ratio | Raw data (confluence at 72 h/confluence at 0 h) [17]: 1.58 | AsPC-1 viability (ratio) [18]: 0.31 ratio | AsPC-1 viability mean (ratio) [18]: 0.53 ratio | Raw data (confluence at 72 h/confluence at 0 h) [18]: 1.27 | AsPC-1 viability (ratio) [19]: 0.28 ratio | AsPC-1 viability mean (ratio) [19]: 0.92 ratio | Raw data (confluence at 72 h/confluence at 0 h) [19]: 1.17 | AsPC-1 viability (ratio) [20]: 0.29 ratio | AsPC-1 viability mean (ratio) [20]: 0.47 ratio | Raw data (confluence at 72 h/confluence at 0 h) [20]: 1.19 | AsPC-1 viability (ratio) [21]: 1.02 ratio | AsPC-1 viability mean (ratio) [21]: 0.58 ratio | Raw data (confluence at 72 h/confluence at 0 h) [21]: 4.1 | AsPC-1 viability (ratio) [22]: 0.97 ratio | AsPC-1 viability mean (ratio) [22]: 0.53 ratio | Raw data (confluence at 72 h/confluence at 0 h) [22]: 3.9 | AsPC-1 viability (ratio) [23]: 0.94 ratio | AsPC-1 viability mean (ratio) [23]: 0.35 ratio | Raw data (confluence at 72 h/confluence at 0 h) [23]: 3.77 | AsPC-1 viability (ratio) [24]: 0.8 ratio | AsPC-1 viability mean (ratio) [24]: 0.35 ratio | Raw data (confluence at 72 h/confluence at 0 h) [24]: 3.2 | AsPC-1 viability (ratio) [25]: 0.41 ratio | AsPC-1 viability mean (ratio) [25]: 0.34 ratio | Raw data (confluence at 72 h/confluence at 0 h) [25]: 1.63 | AsPC-1 viability (ratio) [26]: 0.33 ratio | AsPC-1 viability mean (ratio) [26]: 0.47 ratio | Raw data (confluence at 72 h/confluence at 0 h) [26]: 1.34 | AsPC-1 viability (ratio) [27]: 0.29 ratio | AsPC-1 viability mean (ratio) [27]: 0.35 ratio | Raw data (confluence at 72 h/confluence at 0 h) [27]: 1.18 | AsPC-1 viability (ratio) [28]: 0.25 ratio | AsPC-1 viability mean (ratio) [28]: 0.34 ratio | Raw data (confluence at 72 h/confluence at 0 h) [28]: 1 | Ratio (GEM 0 nM, ATRi 3 nM): 0.90 and 0.92 and 1.01 and 0.83 and 1.02 and 0.89 | Ratio (GEM 0 nM, ATRi 10 nM): 1.01 and 1.02 and 1.00 and 0.91 and 0.97 and 0.98 | Ratio (GEM 0 nM, ATRi 30 nM): 0.95 and 0.94 and 0.89 | Ratio (GEM 0 nM, ATRi 100 nM): 0.63 and 0.73 and 0.80 | Ratio (GEM 0 nM, ATRi 300 nM): 0.44 and 0.38 and 0.41 | Ratio (GEM 0 nM, ATRi 1000 nM): 0.37 and 0.31 and 0.33 | Ratio (GEM 0 nM, ATRi 3000 nM): 0.33 and 0.28 and 0.29 | Ratio (GEM 0 nM, ATRi 10000 nM): 0.27 and 0.29 and 0.25 | Ratio (GEM 1 nM + ATRi 3 nM): 0.98 and 0.92 and 0.96 | Ratio (GEM 1 nM + ATRi 10 nM): 1.01 and 0.95 and 0.97 | Ratio (GEM 1 nM + ATRi 30 nM): 0.89 and 0.91 and 0.87 | Ratio (GEM 3 nM + ATRi 3 nM): 0.98 and 0.93 | Ratio (GEM 3 nM + ATRi 10 nM): 0.94 and 0.89 and 0.91 | Ratio (GEM 3 nM + ATRi 30 nM): 0.95 and 0.82 and 0.85 | Ratio (GEM 10 nM + ATRi 3 nM): 0.87 and 0.86 | Ratio (GEM 10 nM + ATRi 10 nM): 0.79 and 0.67 and 0.68 | Ratio (GEM 10 nM + ATRi 30 nM): 0.59 and 0.46 and 0.49 | Ratio (GEM 30 nM + ATRi 3 nM): 0.66 and 0.55 and 0.53 | Ratio (GEM 30 nM + ATRi 10 nM): 0.51 and 0.39 and 0.41 | Ratio (GEM 30 nM + ATRi 30 nM): 0.55 and 0.40 and 0.39 | Ratio (GEM 100 nM + ATRi 3 nM): 0.52 and 0.40 and 0.41 | Ratio (GEM 100 nM + ATRi 10 nM): 0.49 and 0.37 and 0.39 | Ratio (GEM 100 nM + ATRi 30 nM): 0.48 and 0.38 and 0.37 | Ratio (GEM 300 nM + ATRi 3 nM): 0.49 and 0.39 and 0.38 | Ratio (GEM 300 nM + ATRi 10 nM): 0.47 and 0.37 | Ratio (GEM 300 nM + ATRi 30 nM): 0.46 and 0.35 and 0.36 | Ratio (GEM 1000 nM + ATRi 3 nM): 0.49 and 0.39 | Ratio (GEM 1000 nM + ATRi 10 nM): 0.44 and 0.38 and 0.36 | Ratio (GEM 1000 nM + ATRi 30 nM): 0.43 and 0.35 | Ratio (GEM 3000 nM + ATRi 3 nM): 0.43 and 0.38 and 0.37 | Ratio (GEM 3000 nM + ATRi 10 nM): 0.43 and 0.35 and 0.34 | Ratio (GEM 3000 nM + ATRi 30 nM): 0.41 and 0.34
